Results on 3 molecules are retold here after patent EP0452101B1, “Spiro bridged and unbridged heterocyclic compounds” (ISRAEL INSTITUTE FOR BIOLOGICAL RESEARCH, priority 1990, dated 1991).

Like-named read-outs stand apart in the source and are kept apart here.

In assay [1] the target is T1, m3 subtype (SK-N-SH cells) (Homo sapiens, UniProt P20309).
T1 construct: endogenous in cells; host or cells: SK-N-SH human neuroblastoma cells
Put plainly: PI hydrolysis in SK-N-SH neuroblastoma cells. Type of assay: cell-based. As to the method: The new compounds AF150, AF151, AF150(S) and AF125 were assayed for their ability to stimulate PI in CHO cells transfected with m1 and m3 receptors, respectively (Buck and Fraser, loc cit), and in cultured human neuroblastoma cells, line SK-N-SH, which express mainly the m3 subtype, but not the m1 subtype (Pinkas-Kramarski et al, Neurosci. Lett. 188: 335-340, 1990; Luthin et al Mol. Pharmacol. 34: 327-333, 1988). These compounds were also assayed on cultured PC12 cells which express mainly m4 subtype receptors and are coupled to inhibition of AC activity (Pinkas-Kramarski et al, loc cit).
Stimulation of PI breakdown was assayed using the method described by Stein et al (EMBO J. 7: 3031-3035, 1988), and modulation of AC activity was assayed by the method of Stein et al, loc cit and Pinkas-Kramarski et al (FEBS Lett., 239: 174-178, 1988). […]

Another assay addresses T2, M2 muscarinic receptors (Rattus norvegicus, UniProt P10980).
T2 construct: displacing from rat brain homogenates, cerebellum or frontal cortex; from tissue; host or cells: rat cerebellum homogenates
T2 sequence (P10980 1-466): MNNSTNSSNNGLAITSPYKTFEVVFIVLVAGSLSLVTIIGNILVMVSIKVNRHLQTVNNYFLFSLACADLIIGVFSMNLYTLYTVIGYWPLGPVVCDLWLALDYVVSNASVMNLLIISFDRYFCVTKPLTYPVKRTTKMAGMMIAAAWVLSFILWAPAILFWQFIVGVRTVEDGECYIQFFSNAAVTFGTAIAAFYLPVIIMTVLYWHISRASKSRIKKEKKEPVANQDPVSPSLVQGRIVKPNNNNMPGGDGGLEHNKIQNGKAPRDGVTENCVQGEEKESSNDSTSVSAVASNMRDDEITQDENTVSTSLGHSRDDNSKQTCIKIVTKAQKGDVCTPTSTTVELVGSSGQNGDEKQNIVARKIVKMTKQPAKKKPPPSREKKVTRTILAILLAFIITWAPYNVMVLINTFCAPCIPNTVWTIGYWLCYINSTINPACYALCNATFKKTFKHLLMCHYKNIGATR
Put plainly: Displacement of 3H-QNB from rat cerebellum, 50 mM phosphate buffer. Type of assay: binding.

Assay [2] addresses T3, M1 muscarinic receptor (Rattus norvegicus, UniProt P08482).
T3 sequence (P08482 1-460): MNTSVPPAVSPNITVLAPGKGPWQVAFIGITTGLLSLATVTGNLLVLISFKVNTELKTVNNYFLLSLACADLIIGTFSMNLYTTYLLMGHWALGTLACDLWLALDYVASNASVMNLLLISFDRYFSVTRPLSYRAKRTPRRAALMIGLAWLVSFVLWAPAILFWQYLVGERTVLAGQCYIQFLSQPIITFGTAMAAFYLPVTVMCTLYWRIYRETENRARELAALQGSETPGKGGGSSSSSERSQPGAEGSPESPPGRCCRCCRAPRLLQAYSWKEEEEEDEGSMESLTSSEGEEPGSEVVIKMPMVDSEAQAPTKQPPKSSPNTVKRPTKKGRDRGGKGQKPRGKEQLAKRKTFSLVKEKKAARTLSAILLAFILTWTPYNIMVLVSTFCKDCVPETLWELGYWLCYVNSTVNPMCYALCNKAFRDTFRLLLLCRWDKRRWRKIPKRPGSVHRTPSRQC
Put plainly: Displacement of 3H-PZ from cortical binding sites, Tris/Mn buffer, with and without GppNHp. The arrangement: from tissue; host or cells: rat cerebral cortex homogenates. Particulars: for KL-G / KH-G: ratio of low and high affinities without GppNHp. An excerpt:
The binding of agonists to M1 muscarinic receptors and the effect of guanylyl imidophosphate (GppNHp). Agonists are known to be coupled with guanine nucleotide binding proteins (G proteins).
Non-hydrolyzable guanine nucleotides such as GppNHp dissociate the G protein from the receptor and decrease the affinity of the receptor for agonists but not for antagonists. […] Molec.
Under these conditions agonists of high efficacy ("full agonists") bind directly to the M1 receptor subtype with two affinities. […] The ratio of low and high affinities (KL/KH) of the M1 receptor may predict the relative efficacies of agonists to activate putative M1 receptor-mediated second messenger systems.
KH, KL, %H and %L are the apparent inhibition constants of the tested ligands for the high and low affinity sites, respectively. G is GppNHp (guanylyl imidodiphosphate), and was used in 0.1 mM concentration. Displacement of ^3H-PZ from cortical binding sites was performed in Tris/Mn buffer (pH 7.4) for one hour at 25°C; the buffer included 1 mM EDTA and 2mM Mn^++ ions. […] The binding data were analyzed using a GraphPAD program and were fitted to one or two components. Values are means from 1-3 experiments carried out in triplicates.

The target of the next assay is T4, m1 receptors (Rattus norvegicus, UniProt P08482).
T4 construct: expressed in transfected cells; host or cells: CHO cells
T4 sequence (P08482 1-460): T3 sequence (P08482 1-460)
Briefly: PI hydrolysis in CHO cells transfected with m1 receptors. Format: cell-based. Particulars: for EC50: CHO m1, PI hydrolysis; for PI (phosphoinositides hydrolysis): tested at 1mM.

For assay [3], the target named is T3, M1 muscarinic receptor. Briefly: Displacement of 3H-PZ from rat cerebral cortex, 10 mM phosphate buffer. Format: binding. The arrangement: from tissue; host or cells: rat cerebral cortex homogenates.
Where [4] appears, read: +G (0.1 mM GppNHp), read-out: KH.
Where [5] appears, read: +G (0.1 mM GppNHp), read-out: KL.
Where [6] appears, read: -G (without GppNHp), read-out: KH.
The mark [7] stands for this setting: cortex, Table 4, read-out: 3H-PZ-Binding KH (a).

T1 sequence (P20309 whole entry): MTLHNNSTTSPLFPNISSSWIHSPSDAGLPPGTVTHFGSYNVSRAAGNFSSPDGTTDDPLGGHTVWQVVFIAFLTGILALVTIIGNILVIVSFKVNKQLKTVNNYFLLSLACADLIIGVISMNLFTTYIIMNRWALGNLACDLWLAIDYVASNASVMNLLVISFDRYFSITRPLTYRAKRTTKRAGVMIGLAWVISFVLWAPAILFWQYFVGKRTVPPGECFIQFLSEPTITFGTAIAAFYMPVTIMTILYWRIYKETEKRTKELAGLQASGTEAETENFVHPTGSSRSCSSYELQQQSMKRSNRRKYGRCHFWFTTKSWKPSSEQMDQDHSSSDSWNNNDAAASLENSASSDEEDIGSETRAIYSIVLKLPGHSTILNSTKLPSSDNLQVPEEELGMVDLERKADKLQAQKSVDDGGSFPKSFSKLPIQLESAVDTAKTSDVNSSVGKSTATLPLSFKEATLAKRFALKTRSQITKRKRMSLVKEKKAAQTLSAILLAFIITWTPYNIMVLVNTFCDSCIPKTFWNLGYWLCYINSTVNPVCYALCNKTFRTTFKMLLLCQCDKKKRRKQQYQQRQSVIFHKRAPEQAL

On to `CC1=NCC2(CN3CCC2CC3)O1` (racemic) [AF125, 2-Methyl-spiro(1,3 oxazoline-5,3')quinuclidine], for which, in assay [1], the “interference with the effect of carbachol” value is 10-20%. Further, in assay [1], the “stimulation of phosphoinositides hydrolysis relative to carbachol” value is listed as 20-25%. Besides, the “PI, % of carbachol effect” value amounted to 20% in assay [1] (SK-N-SH m3) and 14% at m1 receptors (CHO m1). Further, the Ki on M2 muscarinic receptors (read-out: 3H-QNB-Binding KH2 (c), cerebellum, Table 5) turned out to be 3.8 µM; at M2 muscarinic receptors (read-out: 3H-QNB-Binding KH (c), cerebellum, Table 4), 3.8 µM; at M1 muscarinic receptor [2] (setting [4]), 9 µM; at M1 muscarinic receptor [2] (setting [5]), 12 µM; at M1 muscarinic receptor [2] (setting [6]), 9 µM; on M1 muscarinic receptor [2] (-G, read-out: KL) it was 12 µM. Further, at M1 muscarinic receptor [3] (setting [7]), the Ki amounted to 4 µM.
`CC1=NCC2(CCN(C)CC2)O1` [AF150, 2-Methyl-spiro(1,3-oxazoline-5,4')-1'-methylpiperidine]: the “PI, % of carbachol effect” value in assay [1] (SK-N-SH m3) worked out at 40%. In addition, the concentration giving a half-maximal response (EC50) in assay [1] (SK-N-SH m3, PI hydrolysis) was determined as 3 µM; on m1 receptors, 13 µM. Also, the “PI (phosphoinositides hydrolysis)” value in assay [1] (SK-N-SH m3, tested at 1mM) is “+”; on m1 receptors (CHO m1), “+++”. Besides, the “RATIOS d:c” value at M2 muscarinic receptors (KL2 : KH2 cerebellum (3H-QNB)) was found to be 17. Besides, the “% H” value on M2 muscarinic receptors (cerebellum, Table 4) is 49%; at M1 muscarinic receptor [2] (-G) it was 21%; at M1 muscarinic receptor [3] (cortex, Table 4), 24%. Further, the “%L” value at M2 muscarinic receptors (cerebellum, Table 4) was 51%; on M1 muscarinic receptor [2] (+G (0.1 mM GppNHp)) it was 100%; at M1 muscarinic receptor [2] (-G) it was 83%; on M1 muscarinic receptor [3] (cortex, Table 4), 76%. The Ki came out at 4.5 µM at M2 muscarinic receptors (cerebellum, Table 4, read-out: 3H-QNB-Binding KH (c)); 79 µM on M2 muscarinic receptors (cerebellum, Table 4, read-out: 3H-QNB-Binding KL (d)); 4.9 µM at M2 muscarinic receptors (cerebellum, Table 5, read-out: 3H-QNB-Binding KH2 (c)); 83 µM on M2 muscarinic receptors (cerebellum, Table 5, read-out: 3H-QNB-Binding KL2 (d)); 21 µM at M1 muscarinic receptor [2] (setting [5]); 0.11 µM on M1 muscarinic receptor [2] (setting [6]). The Ki worked out at 11 µM on M1 muscarinic receptor [2] (-G, read-out: KL); 0.02 µM at M1 muscarinic receptor [3] (setting [7]); 18 µM on M1 muscarinic receptor [3] (cortex, Table 4, read-out: 3H-PZ-Binding KL (b)). On M2 muscarinic receptors (cerebellum, Table 5), the “% H2” value is reported as 51%. For the same molecule, at M2 muscarinic receptors (cerebellum, Table 5), the “% L2” value was 49%. Moreover, the “KL-G / KH-G” value at M1 muscarinic receptor [2] was 100. Also, on M1 muscarinic receptor [3] (KH cerebellum (3H-QNB) : KH cortex (3H-PZ)), the “RATIOS c:a” value is 225. In addition, the “RATIOS b:a” value at M1 muscarinic receptor [3] (KL : KH cortex (3H-PZ)) amounted to 900. The “RATIOS d:b” value at M1 muscarinic receptor [3] (KL cerebellum (3H-QNB) : KL cortex (3H-PZ)) was found to be 4.4.
As for `CC1=NC2(CCN(C)CC2)CO1` [AF151, 1-methylpiperidine-4-spiro-4'-(2'-methyl-1',3'-oxazoline)], the “% H” value worked out at 17% at M1 muscarinic receptor [2] (+G (0.1 mM GppNHp)) and 39% on M1 muscarinic receptor [2] (-G). Moreover, the “%L” value is 83% on M1 muscarinic receptor [2] (+G (0.1 mM GppNHp)) and 61% at M1 muscarinic receptor [2] (-G). Also, the Ki on M1 muscarinic receptor [2] (setting [4]) worked out at 4.6 µM; on M1 muscarinic receptor [2] (setting [5]) it was 59 µM; on M1 muscarinic receptor [2] (setting [6]) it was 3.7 µM; at M1 muscarinic receptor [2] (-G, read-out: KL), 4.8 µM. In addition, the “KL-G / KH-G” value at M1 muscarinic receptor [2] was determined as 13. Also, on m1 receptors, the EC50 worked out at 54 µM. Also, the “PI (phosphoinositides hydrolysis)” value at m1 receptors (CHO m1) was “+++”.
